Test results taken from patent US11566007B2, “Ras inhibitors” (Revolution Medicines, Inc., priority 2019, dated 2023).
Values joined by “and” are separate entries in the source; they are usually repeats but may differ in a detail not shown here. Equal entries are not always repeated. Where two headings read alike, the source gives them in different places.

Legend:
KRAS G13D = KRAS G13D (Homo sapiens (Human), UniProt P01116+P62937, G13D); assay: Ras-Raf (BRAF RBD) disruption / FRET / MOA assay, KRAS G13D; type: biochemical
Protocol: (§1) The purpose of this biochemical assay is to measure the ability of test compounds to facilitate ternary complex formation between a nucleotide-loaded Ras isoform and cyclophilin A; the resulting ternary complex disrupts binding to a BRAF^RBD construct, inhibiting Ras signaling through a RAF effector.
(§2) Compound is present in plate wells as a 10-point 3-fold dilution series starting at a final concentration of 30 μM. After incubation at 25° C. for 3 hours, a mixture of Anti-His Eu-W1024 and anti-GST allophycocyanin is then added to assay sample wells at final concentrations of 10 nM and 50 nM, respectively, and the reaction incubated for an additional 1.5 hours. […] Compounds that facilitate disruption of a Ras:RAF complex are identified as those eliciting a decrease in the TR-FRET ratio relative to DMSO control wells.
(§3) This protocol may also be executed substituting other Ras proteins or nucleotides.
(§4) The purpose of this biochemical assay was to measure the ability of test compounds to facilitate ternary complex formation between a nucleotide-loaded K-Ras isoform and Cyclophilin A; the resulting ternary complex disrupts binding to a BRAF^RBD construct, inhibiting K-Ras signaling through a RAF effector. Data is reported as IC50 values.
as §2, with “Compound was” for “Compound is”, “allophycocyanin was” for “allophycocyanin is”, “a K-Ras:RAF” for “a Ras:RAF”, “complex were” for “complex are”

NRAS G12C = NRAS G12C (Homo sapiens (Human), UniProt P01111+P62937, G12C); assay: Ras-Raf (BRAF RBD) disruption / FRET / MOA assay, NRAS G12C; type: biochemical
Protocol: as §1, §2
This protocol may also be executed substituting other Ras proteins or nucleotides. […]

KRAS G12D = KRAS G12D (Homo sapiens (Human), UniProt P01116+P62937, G12D); assay: Ras-Raf (BRAF RBD) disruption / FRET / MOA assay, KRAS G12D; type: biochemical; conditions: class symbols
Summary of the method: (§5)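 Compound-driven ternary complex of nucleotide-loaded Ras with cyclophilin A, disrupting BRAF RBD binding. 10-point 3-fold dilution from 30 μM final, 3 h at 25° C, then anti-His Eu-W1024 (10 nM) and anti-GST allophycocyanin (50 nM) for 1.5 h. IC50 from TR-FRET ratio decrease versus DMSO.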

[1] = system: NCI-H358 cells (K-Ras G12C); assay: Potency assay: pERK in NCI-H358 cells; type: cell-based, human; conditions: H358 KRAS G12C, read-out: pERK EC50
Summary of the method: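 4 h cpd, 37 °C; 10-pt 3-fold series, 10 mM DMSO top stock, duplicates. Readout pERK: AlphaLISA SureFire Ultra or In-Cell Western (IR-800CW secondary, DRAQ5 DNA stain). IC50, 4-PL fit vs log conc.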

KRAS G12S = KRAS G12S (Homo sapiens (Human), UniProt P01116+P62937, G12S); assay: Ras-Raf (BRAF RBD) disruption / FRET / MOA assay, KRAS G12S; type: biochemical; conditions: class symbols
Summary of the method: as §5

K-Ras G13C = K-Ras G13C (Homo sapiens (Human), UniProt P01116+P62937, G13C); assay: Ras-Raf (BRAF RBD) disruption / FRET / MOA assay, KRAS G13C; type: biochemical; conditions: KRAS G13C, Ras-Raf disruption/FRET/MOA assay
Protocol: as §1, §2, §3, §4
as §2, with “Compound was” for “Compound is”, “allophycocyanin was” for “allophycocyanin is”, “a K-Ras:RAF” for “a Ras:RAF”, “complex were” for “complex are”

KRAS G12V = KRAS G12V (Homo sapiens (Human), UniProt P01116+P62937, G12V); assay: Ras-Raf (BRAF RBD) disruption / FRET / MOA assay, KRAS G12V; type: biochemical
Protocol: as §1, §2, §3, §4
as §2, with “Compound was” for “Compound is”, “allophycocyanin was” for “allophycocyanin is”, “a K-Ras:RAF” for “a Ras:RAF”, “complex were” for “complex are”

KRAS WT = KRAS WT (Homo sapiens (Human), UniProt P01116+P62937); assay: Ras-Raf (BRAF RBD) disruption / FRET / MOA assay, KRAS WT; type: biochemical
Protocol: as §1, §2, §3, §4
as §2, with “Compound was” for “Compound is”, “allophycocyanin was” for “allophycocyanin is”, “a K-Ras:RAF” for “a Ras:RAF”, “complex were” for “complex are”

K-Ras G12C = K-Ras G12C (Homo sapiens (Human), UniProt P01116+P62937, G12C); assay: Ras-Raf (BRAF RBD) disruption / FRET / MOA assay, KRAS G12C; type: biochemical; conditions: KRAS G12C, Ras-Raf disruption/FRET/MOA assay
Protocol: as §1, §2, §3, §4
as §2, with “Compound was” for “Compound is”, “allophycocyanin was” for “allophycocyanin is”, “a K-Ras:RAF” for “a Ras:RAF”, “complex were” for “complex are”

[2] = read-out: IC50* KRAS G13D FRET data
[3] = read-out: IC50* NRAS G12C FRET data
[4] = Ras-Raf disruption/FRET/MOA assay, read-out: KRAS G12D FRET data IC50
[5] = Ras-Raf disruption/FRET/MOA assay, read-out: KRAS G12S FRET data IC50
[6] = read-out: IC50* KRAS G13C FRET data
[7] = read-out: IC50* KRAS G12V FRET data
[8] = read-out: IC50* KRAS WT FRET data
[9] = read-out: IC50* KRAS G12C FRET data

KRAS G12S, sequence (P01116-2 other isoform, or with tags, fused parts or gaps G12S): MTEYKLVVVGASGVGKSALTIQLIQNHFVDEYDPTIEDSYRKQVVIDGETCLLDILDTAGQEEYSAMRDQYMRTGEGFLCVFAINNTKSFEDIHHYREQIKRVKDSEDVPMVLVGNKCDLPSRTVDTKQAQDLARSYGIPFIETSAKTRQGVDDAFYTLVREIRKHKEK
KRAS G12S, sequence (P62937 whole entry): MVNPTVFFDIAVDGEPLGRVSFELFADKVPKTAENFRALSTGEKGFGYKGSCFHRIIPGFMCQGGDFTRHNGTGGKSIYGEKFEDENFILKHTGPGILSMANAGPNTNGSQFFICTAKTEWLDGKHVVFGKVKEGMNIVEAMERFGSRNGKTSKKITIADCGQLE
NRAS G12C, sequence (P01111 whole entry G12C): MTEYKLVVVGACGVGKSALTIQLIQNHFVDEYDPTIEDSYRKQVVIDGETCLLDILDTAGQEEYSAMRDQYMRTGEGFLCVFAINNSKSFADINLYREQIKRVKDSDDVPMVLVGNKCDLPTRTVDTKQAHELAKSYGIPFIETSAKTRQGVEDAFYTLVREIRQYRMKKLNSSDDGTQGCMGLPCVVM
NRAS G12C, sequence (P62937 whole entry): as the sequence (P62937 whole entry) above
KRAS G12D, sequence (P01116-2 other isoform, or with tags, fused parts or gaps G12D): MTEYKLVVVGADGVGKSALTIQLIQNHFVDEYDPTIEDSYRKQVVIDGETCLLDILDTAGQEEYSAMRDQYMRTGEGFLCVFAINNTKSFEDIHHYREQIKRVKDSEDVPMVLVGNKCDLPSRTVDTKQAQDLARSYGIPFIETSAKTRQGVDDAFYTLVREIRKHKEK
KRAS G12D, sequence (P62937 whole entry): as the sequence (P62937 whole entry) above
K-Ras G12C, sequence (P01116-2 other isoform, or with tags, fused parts or gaps G12C): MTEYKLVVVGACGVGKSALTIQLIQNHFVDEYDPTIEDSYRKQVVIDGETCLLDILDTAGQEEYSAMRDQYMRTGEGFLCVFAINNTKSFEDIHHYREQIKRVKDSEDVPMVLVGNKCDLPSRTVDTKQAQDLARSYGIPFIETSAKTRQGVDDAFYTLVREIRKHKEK
K-Ras G12C, sequence (P62937 whole entry): as the sequence (P62937 whole entry) above
K-Ras G13C, sequence (P01116-2 other isoform, or with tags, fused parts or gaps G13C): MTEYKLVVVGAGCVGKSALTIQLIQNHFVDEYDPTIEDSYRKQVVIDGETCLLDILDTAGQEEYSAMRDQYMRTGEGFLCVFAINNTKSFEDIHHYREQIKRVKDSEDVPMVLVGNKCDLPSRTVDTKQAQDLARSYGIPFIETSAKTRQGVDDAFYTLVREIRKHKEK
K-Ras G13C, sequence (P62937 whole entry): as the sequence (P62937 whole entry) above
KRAS G12V, sequence (P01116-2 other isoform, or with tags, fused parts or gaps G12V): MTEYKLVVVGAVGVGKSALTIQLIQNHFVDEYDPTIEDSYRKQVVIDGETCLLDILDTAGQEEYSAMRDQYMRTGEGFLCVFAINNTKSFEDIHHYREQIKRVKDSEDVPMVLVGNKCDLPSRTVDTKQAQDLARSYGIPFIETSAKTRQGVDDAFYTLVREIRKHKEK
KRAS G12V, sequence (P62937 whole entry): as the sequence (P62937 whole entry) above
KRAS G13D, sequence (P01116-2 other isoform, or with tags, fused parts or gaps G13D): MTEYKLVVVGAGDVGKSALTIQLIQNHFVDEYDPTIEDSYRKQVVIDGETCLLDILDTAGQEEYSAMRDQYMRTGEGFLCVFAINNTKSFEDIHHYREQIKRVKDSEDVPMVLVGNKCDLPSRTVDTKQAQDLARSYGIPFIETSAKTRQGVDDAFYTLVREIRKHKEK
KRAS G13D, sequence (P62937 whole entry, canonical isoform): as the sequence (P62937 whole entry) above
KRAS WT, sequence (P01116-2 other isoform, or with tags, fused parts or gaps): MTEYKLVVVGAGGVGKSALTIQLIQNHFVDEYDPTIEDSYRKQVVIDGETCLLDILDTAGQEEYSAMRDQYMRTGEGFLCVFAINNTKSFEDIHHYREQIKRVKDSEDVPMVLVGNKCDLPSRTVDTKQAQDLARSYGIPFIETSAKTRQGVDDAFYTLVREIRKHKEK
KRAS WT, sequence (P62937 whole entry): as the sequence (P62937 whole entry) above

Row | IC50 (KRAS G13D; [2]) | IC50 (NRAS G12C; [3]) | IC50 (KRAS G12D; [4]) | IC50 (KRAS G12S; [5]) | IC50 (K-Ras G13C; [6]) | IC50 (KRAS G12V; [7]) | IC50 (KRAS WT; [8]) | IC50 (K-Ras G12C; [9]) | EC50 ([1]; Homo sapiens, NCI-H358) | Structure (SMILES) | EC50 [1] | IC50 (KRAS G13D; IC50* KRAS G13D FRET data) | IC50 (NRAS G12C; IC50* NRAS G12C FRET data) | IC50 (KRAS G12D; KRAS G12D FRET data IC50, Ras-Raf disruption/FRET/MOA assay) | IC50 (KRAS G12S; KRAS G12S FRET data IC50, Ras-Raf disruption/FRET/MOA assay) | IC50 (K-Ras G13C; IC50* KRAS G13C FRET data) | IC50 (KRAS G12V; IC50* KRAS G12V FRET data) | IC50 (KRAS WT; IC50* KRAS WT FRET data) | IC50 (K-Ras G12C; IC50* KRAS G12C FRET data)
1 | 100 to 1000 nM and 1000 to 10000 nM | 10 to 100 nM | 1000 to 10000 nM and > 10000 nM | 100 to 1000 nM and 1000 to 10000 nM | 10 to 100 nM and < 10 nM | 100 to 1000 nM and 1000 to 10000 nM | 100 to 1000 nM and 1000 to 10000 nM | 10 to 100 nM | < 5000 nM | CCn1c(-c2cccnc2[C@H](C)OC)c2c3cc(ccc31)-c1cc(O)cc(c1)C[C@H](NC(=O)[C@H](C(C)C)N(C)C(=O)c1ccc(NC(=O)/C=C/CN(C)C)cn1)C(=O)N1CCC[C@H](N1)C(=O)OCC(C)(C)C2 (atropisomer, axis not shown) [Example A251] |  |  |  |  |  |  |  |  | 
2 | 1000 to 10000 nM | 100 to 1000 nM and < 10 nM | 1000 to 10000 nM | 1000 to 10000 nM and > 10000 nM | 100 to 1000 nM and 1000 to 10000 nM | 1000 to 10000 nM and > 10000 nM | 1000 to 10000 nM and > 10000 nM | 100 to 1000 nM and < 10 nM | < 5000 nM | CCn1c(-c2cnccc2COC)c2c3cc(ccc31)-c1cccc(c1)C[C@H](NC(=O)[C@H](C(C)C)N(C)C(=O)[C@H]1CCN(C(=O)C#CCN(C)C)C1)C(=O)N1CCC[C@H](N1)C(=O)OCC(C)(C)C2 (atropisomer, axis not shown) [Example A120] |  |  |  |  |  |  |  |  | 
3 | 1000 to 10000 nM | 100 to 1000 nM | 1000 to 10000 nM | 1000 to 10000 nM | 1000 to 10000 nM | 1000 to 10000 nM | 1000 to 10000 nM | 100 to 1000 nM |  | C=CC(=O)N1CC[C@H](C(=O)N(C)[C@H](C(=O)N[C@H]2Cc3nc(cs3)-c3ccc4c(c3)c(c(-c3cc(C5=CCN(C)CC5)cnc3[C@H](C)OC)n4CC)CC(C)(C)COC(=O)[C@@H]3CCCN(N3)C2=O)C(C)C)C1 (atropisomer, axis not shown) [Example A520] | < 5000 nM |  |  |  |  |  |  |  | 
4 | > 10000 nM | 1 µM to 10 µM and > 10 µM (2×) | > 10000 nM | > 10000 nM | > 10 µM (2×) and 1 µM to 10 µM | > 10000 nM | > 10000 nM | 1 µM to 10 µM and > 10 µM (2×) | < 5000 nM | C=CC(=O)N1CC[C@H](C(=O)N(C)[C@H](C(=O)N[C@H]2Cc3nc(cs3)-c3ccc4c(c3)c(c(-c3cccnc3[C@H](C)OC)n4CC)CC(C)(C)COC(=O)[C@@H]3CCCN(N3)C2=O)C(C)C)C1 (atropisomer, axis not shown) [Example A279] |  |  |  |  |  |  |  |  | 
5 | 1000 to 10000 nM | < 10 nM | 1000 to 10000 nM | > 10000 nM | 100 to 1000 nM | > 10000 nM | > 10000 nM | < 10 nM | < 5000 nM | CCn1c(-c2cnccc2COC)c2c3cc(ccc31)-c1ccnc(c1)C[C@H](NC(=O)[C@H](C(C)C)N(C)C(=O)[C@H]1CCN(C(=O)C#CCN(C)C)C1)C(=O)N1CCC[C@H](N1)C(=O)OCC(C)(C)C2 [Example A130] |  |  |  |  |  |  |  |  | 
6 |  |  |  |  |  |  |  |  |  | C=CC(=O)N1CC(CN2C(=O)O[C@H](C)[C@H]2C(=O)N[C@H]2Cc3cccc(c3)-c3ccc4c(c3)c(c(-c3cccnc3[C@H](C)OC)n4CC)CC(C)(C)COC(=O)[C@@H]3CCCN(N3)C2=O)C1 (atropisomer, axis not shown) [Example A460] |  | > 10000 nM | 1000 to 10000 nM | > 10000 nM | > 10000 nM | 1000 to 10000 nM | > 10000 nM | > 10000 nM | 1000 to 10000 nM

Row | Structure (SMILES) | IC50 (KRAS G13D; [2]) | IC50 (NRAS G12C; [3]) | IC50 (KRAS G12D; [4]) | IC50 (KRAS G12S; [5]) | IC50 (K-Ras G13C; [6]) | IC50 (KRAS G12V; [7]) | IC50 (KRAS WT; [8]) | IC50 (K-Ras G12C; [9]) | EC50 ([1]; Homo sapiens, NCI-H358) | EC50 [1] | IC50 (KRAS G13D; IC50* KRAS G13D FRET data) | IC50 (NRAS G12C; IC50* NRAS G12C FRET data) | IC50 (KRAS G12D; KRAS G12D FRET data IC50, Ras-Raf disruption/FRET/MOA assay) | IC50 (KRAS G12S; KRAS G12S FRET data IC50, Ras-Raf disruption/FRET/MOA assay) | IC50 (K-Ras G13C; IC50* KRAS G13C FRET data) | IC50 (KRAS G12V; IC50* KRAS G12V FRET data) | IC50 (KRAS WT; IC50* KRAS WT FRET data) | IC50 (K-Ras G12C; IC50* KRAS G12C FRET data)
7 | C=CC(=O)Nc1cnc(C(=O)N(C)[C@H](C(=O)N[C@H]2Cc3cccc(c3)-c3ccc4c(c3)c(c(-c3cccnc3[C@H](C)OC)n4CC)CC(C)(C)COC(=O)[C@@H]3CCCN(N3)C2=O)C(C)C)n1C (atropisomer, axis not shown) [Example A525] | 1000 to 10000 nM | 10 to 100 nM | 1000 to 10000 nM | 1000 to 10000 nM | 10 to 100 nM | 1000 to 10000 nM | 1000 to 10000 nM | 10 to 100 nM |  | < 5000 nM |  |  |  |  |  |  |  | 
